Results reported in ChEMBL document CHEMBL5506043, “A β-Carboline Derivate PAD4 Inhibitor Reshapes Neutrophil Phenotype and Improves the Tumor Immune Microenvironment against Triple-Negative Breast Cancer” (J Med Chem, 2024).
Calls of active or inactive are those of the source.

Assays:
[1] = target: Protein-arginine deiminase type-2 (Homo sapiens, UniProt Q9Y2J8); experiment: Inhibition of PAD2 (unknown origin) using Nalpha-benzoyl-L-arginine ethyl ester as substrate preincubated for 60 mins followed by substrate addition and measured after 90 mins by colorimetric analysis
[2] = Cytotoxicity against human MCF-10A cells assessed as inhibition of cell growth incubated for 48 hrs by MTT assay; format: toxicity, cell-based
4T1 = experiment: Antimetastatic activity in starved mouse 4T1 cells assessed as inhibition of cell migration by measuring reduction in wound closure rate incubated for 24 hrs by scratch wound healing assay; format: functional, cell-based; details: dose 0.5-2 µM
[3] = target: Protein-arginine deiminase type-4 (Mus musculus) (UniProt Q9Z183); experiment: Inhibition of PAD4 in mouse 4T1 cells assessed as reduction in histone H3 citrullination at 2 uM by immunofluorescence analysis; format: cell-based
[4] = target: Protein-arginine deiminase type-4 (Mus musculus) (UniProt Q9Z183); experiment: Inhibition of PAD4 in BALB/c mouse bone marrow neutrophils assessed as reduction in histone H3 citrullination at 2 uM preincubated for 2 hrs followed by calcium ionophore A23187 addition and measured after 2 hrs by Hoechst 33342/Ly6G staining based laser confocal microscopic analysis; details: Neutrophil, time 4.0 hrs
[5] = Cmax in male Sprague-Dawley rat at 3.5 mg/kg, iv by LC-MS/MS analysis; format: ADME, organism-based; details: in vivo
4T1-Luc [6] = experiment: Antitumor activity against mouse orthotopic 4T1-Luc cells implanted in iv dosed female BALB/c mouse assessed as inhibition of tumor growth administered via tail vein every 2 days for 9 times for 17 days and measured every 2 days by IVIS live cell imaging analysis; format: functional, organism-based; details: dose 1-10 mg/kg, time 17.0 day
4T1-Luc [7] = experiment: Antimetastatic activity against mouse orthotopic 4T1-Luc cells implanted in iv dosed female BALB/c mouse assessed as reduction in lung metastasis by measuring reduction in metastatic lung nodules administered via tail vein every 2 days for 9 times for 17 days; format: functional, organism-based; details: dose 1-10 mg/kg, time 17.0 day
[8] = Toxicity in female BALB/c mouse implanted with mouse orthotopic 4T1-Luc cells assessed as reduction in body weight at 1 to 10 mg/kg, iv administered via tail vein every 2 days for 9 times for 17 days and measured every 2 days; format: organism-based; details: in vivo, 408 h, dose 1-10 mg/kg, time 17 day
[9] = Toxicity in female BALB/c mouse implanted with mouse orthotopic 4T1-Luc cells assessed as effect on viscero-somatic ratio at 1 to 10 mg/kg, iv administered via tail vein every 2 days for 9 times for 17 days; format: organism-based; details: in vivo, 408 h, dose 1-10 mg/kg, time 17 day
[10] = Toxicity in female BALB/c mouse implanted with mouse orthotopic 4T1-Luc cells assessed as effect on serum creatinine level at 1 to 10 mg/kg, iv administered via tail vein every 2 days for 9 times for 17 days; format: organism-based; details: in vivo, 408 h, dose 1-10 mg/kg, time 17 day
[11] = Toxicity in female BALB/c mouse implanted with mouse orthotopic 4T1-Luc cells assessed as morphological changes in heart at 1 to 10 mg/kg, iv administered via tail vein every 2 days for 9 times for 17 days by H and E staining based analysis; format: organism-based; details: in vivo, 408 h, dose 1-10 mg/kg, time 17 day
[12] = Toxicity in female BALB/c mouse implanted with mouse orthotopic 4T1-Luc cells assessed as morphological changes in liver at 1 to 10 mg/kg, iv administered via tail vein every 2 days for 9 times for 17 days by H and E staining based analysis; format: organism-based; details: in vivo, 408 h, dose 1-10 mg/kg, time 17 day
Mus musculus [13] = experiment: In vivo inhibition of PAD4 in female BALB/c mouse implanted with mouse orthotopic 4T1-Luc cells assessed as inhibition of histone H3 citrullination in tumor at 10 mg/kg, iv administered via tail vein every 2 days for 9 times for 17 days by immunohistochemical staining based analysis; format: functional, organism-based; details: time 17.0 day
Mus musculus [14] = experiment: (§1) Induction of tumor microenvironment in female BALB/c mouse implanted with mouse orthotopic 4T1-Luc cells assessed as downregulation of myeloid derived suppressive M-MDSC cells at 1 to 10 mg/kg, iv administered via tail vein every 2 days for 9 times for 17 days by single-cell mass spectrometry flow cytometry analysis; format: functional, organism-based; details: dose 1-10 mg/kg, time 17.0 day
Mus musculus [15] = experiment: as §1, with “increase in proportion” for “downregulation”, “MHC-II-positive tumor-associated neutrophils” for “myeloid derived suppressive M-MDSC cells”; format: functional, organism-based; details: dose 1-10 mg/kg, time 17.0 day
Mus musculus [16] = experiment: as §1, with “decrease in proportion” for “downregulation”, “PD-L1-positive/MHC-II-positive tumor-associated neutrophils” for “myeloid derived suppressive M-MDSC cells”; format: functional, organism-based; details: dose 1-10 mg/kg, time 17.0 day

Protein-arginine deiminase type-4 (Mus musculus), sequence (Q9Z183 whole entry): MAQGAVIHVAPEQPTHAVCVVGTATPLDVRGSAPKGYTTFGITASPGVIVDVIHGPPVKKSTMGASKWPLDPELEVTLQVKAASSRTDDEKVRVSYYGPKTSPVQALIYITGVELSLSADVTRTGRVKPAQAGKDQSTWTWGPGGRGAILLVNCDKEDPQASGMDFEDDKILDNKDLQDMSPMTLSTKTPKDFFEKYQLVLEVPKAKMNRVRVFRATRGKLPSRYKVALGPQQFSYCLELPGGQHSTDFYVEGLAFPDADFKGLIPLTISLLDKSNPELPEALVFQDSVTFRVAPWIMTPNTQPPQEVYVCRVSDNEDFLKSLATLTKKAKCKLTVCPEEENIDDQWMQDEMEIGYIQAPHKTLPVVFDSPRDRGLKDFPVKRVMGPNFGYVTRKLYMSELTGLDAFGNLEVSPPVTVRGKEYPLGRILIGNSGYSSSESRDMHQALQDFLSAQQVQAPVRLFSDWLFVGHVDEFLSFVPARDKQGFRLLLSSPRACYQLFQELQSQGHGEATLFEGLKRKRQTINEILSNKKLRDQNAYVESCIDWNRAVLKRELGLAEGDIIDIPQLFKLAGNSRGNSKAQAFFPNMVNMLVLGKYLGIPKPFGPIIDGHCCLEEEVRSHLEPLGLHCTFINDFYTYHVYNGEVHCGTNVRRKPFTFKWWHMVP
Protein-arginine deiminase type-2, sequence (Q9Y2J8 whole entry): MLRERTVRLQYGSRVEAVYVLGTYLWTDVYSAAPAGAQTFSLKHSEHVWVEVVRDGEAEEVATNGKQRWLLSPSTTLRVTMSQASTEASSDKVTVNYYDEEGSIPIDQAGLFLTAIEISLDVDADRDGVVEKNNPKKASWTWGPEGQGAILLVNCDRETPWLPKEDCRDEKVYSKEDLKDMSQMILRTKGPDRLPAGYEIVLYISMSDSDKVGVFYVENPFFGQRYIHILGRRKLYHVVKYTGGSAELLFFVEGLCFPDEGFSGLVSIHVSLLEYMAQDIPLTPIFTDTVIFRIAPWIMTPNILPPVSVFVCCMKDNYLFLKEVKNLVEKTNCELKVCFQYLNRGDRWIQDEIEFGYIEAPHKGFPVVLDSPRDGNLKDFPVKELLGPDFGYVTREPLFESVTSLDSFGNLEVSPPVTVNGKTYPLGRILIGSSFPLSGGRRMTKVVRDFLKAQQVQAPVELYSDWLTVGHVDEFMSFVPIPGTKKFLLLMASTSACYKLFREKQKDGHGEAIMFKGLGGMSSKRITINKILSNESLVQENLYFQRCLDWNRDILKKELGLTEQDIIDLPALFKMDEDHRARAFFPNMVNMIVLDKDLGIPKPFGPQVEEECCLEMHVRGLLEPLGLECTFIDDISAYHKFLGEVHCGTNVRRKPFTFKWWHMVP

N=C(CCl)NCCC[C@H](NC(=O)c1cc2c([nH]c3ccccc32)c(-c2ccccc2)n1)C(=O)NCc1ccccc1
active: Activity (4T1) Dose-Dependent Effect | inhibition [3] | inhibition [4] | Activity (4T1-Luc [6]) Dose-Dependent Effect | Activity (4T1-Luc [7]) Dose-Dependent Effect | inhibition (Mus musculus [13]) | Activity (Mus musculus [14]) | Activity (Mus musculus [15]) | Activity (Mus musculus [16])
8.39 µM: IC50 at 48 h [2]
2.97 µM: IC50 [1]
Non-Toxic: Activity [8] | Activity [9] | Activity [10] | Activity [11] | Activity [12]
297.71 ng/mL: Cmax [5]
